# Experimental data: patent publication US20100260772A1, “METHODS FOR TREATING OR PREVENTING DISEASES ASSOCIATED WITH LOW BONE MASS” (THE TRUSTEES OF COLUMBIA UNIVERSITY IN THE CITY OF NEW YORK, priority 2007, published 2010)
# Key:
# [1] = tested on: cfos expression in brain stems; assay: Leptin injection, cfos expression in brain stem; type: in vivo; conditions: following leptin injection
# Source text: We know that expression of the leptin receptor ObRb is not restricted to hypothalamic neurons and can be found in particular in serotonin-producing neurons of the brainstem that also express Tph2. […] This latter result means that leptin's first site of action in the brain is not, at least as far as controlling bone mass is concerned, the hypothalamus but rather the brainstem where serotonergic neurons are localized.
# [2] = tested on: Tph2 expression in brainstem; assay: Leptin injection, Tph2 expression in brainstem; type: in vivo, mice
# [3] = tested on: neuropeptides Y (Npy), a leptin target gene in arcuate neurons; assay: Leptin injection, Npy expression (internal control); type: in vivo, mice; conditions: same leptin injection
# Source text: Next, we injected i.p […] of leptin and studied its effects on Tph2 expression 4 and […]. We also measured the brain concentration of serotonin in leptin knockouts (ob/ob mice). FIG. 5. […] FIG. 15. […] FIG. 5. […] Serotonin neurons in the brain stem have the ObRb receptors that bind to leptin, and they project to the hypothalamus.
substance,measurement,setting,value
leptin: endogenous polypeptide product of an ob gene,cfos expression in brain stems,[1],increased cfos expression
same,Tph2 expression in brain stem (in words),"[2]; leptin injection (ICV, FIG. 7)",decreases Tph2 expression
same,decrease of Tph2 expression in brainstem,"[2]; leptin injection i.c.v., FIG. 15",approximately 50%
same,expression of neuropeptides Y (Npy),[3],decreased
